Measurements from US11292791B2 (priority 2017, dated 2022).

biological target: T1, BRD4 (Homo sapiens (Human), UniProt O60885); test: not given; settings: read-out: BRD4 IC50 (μM gmean)

Compound | IC50
COC(=O)N1c2ccc3c(nc(CC(C(=O)O)c4cccc5ccccc45)n3C3CCCOC3)c2CC[C@@H]1C (stereo partly drawn) [Example 852] | 1 to 1000 µM
COC(=O)N1c2ccc3c(nc(CCn4cccn4)n3CC(=O)N3CC[C@@H](NC(C)=O)C3)c2CC[C@@H]1C [Example 370] | 1 to 1000 µM
COC(=O)N1c2ccc3c(nc(CCc4ccccc4)n3C3CCNCC3)c2CC[C@@H]1C [Example 104] | 1 to 1000 µM
COC(=O)N1c2ccc3c(nc(CC(C(=O)O)c4cccc(C)c4)n3C3CCCOC3)c2CC[C@@H]1C (stereo partly drawn) [Example 644] | 1 to 1000 µM
COC(=O)N1c2ccc3c(nc([C@H](C)c4ccccc4)n3C3CCNCC3)c2CC[C@@H]1C [Example 58, methyl (S)-7-methyl-2-((R)-1-phenylethyl)-3-(piperidin-4-yl)-3,7,8,9-tetrahydro-6H-imidazo[4,5-f]quinoline-6-carboxylate] | 1 to 1000 µM
COC(=O)N1c2ccc3c(nc(CC(C(=O)O)c4ccc(C5CC5)cc4)n3C3CCCOC3)c2CC[C@@H]1C (stereo partly drawn) [Example 620] | 1 to 1000 µM
COC(=O)N1c2ccc3c(nc(-c4ccccc4)n3CCN3CCOCC3)c2CC[C@@H]1C [Example 250] | 1 to 1000 µM
COC(=O)N1c2ccc3c(nc(Cc4ccc(OC)cc4)n3[C@H]3CC[C@H](C(=O)O)CC3)c2CC[C@@H]1C [Example 27] | 1 to 1000 µM

biological target: T1, BRD4; test: biochemical; settings: BRD4 IC50 (μM gmean)

Compound | IC50
COC(=O)N1c2ccc3c(nc(Cc4ccccc4)n3CCC(N)=O)c2CC[C@@H]1C [Example 289, methyl (7S)-2-benzyl-3-(2-carbamoylethyl)-7-methyl-3H,6H,7H,8H,9H-imidazo[4,5-f]quinoline-6-carboxylate] | 1 to 1000 µM
